Experiments:
[1] = tested on: osteochondral defect in the femoral trochlear groove; test: Osteochondral defect repair, femoral trochlear groove (ICRS macroscopic and modified O'Driscoll histology scoring); type: in vivo, sheep; details: Trochlea, TGFβ (+), control = TGFβ-1 in saline; for median Macroscopic Score: 12-point scale; for median Histology Score: 24-point scale
Description: (§1) Osteochondral defect filling and regeneration: Skeletally mature female sheep were anesthetized and arthrotomy was performed bilaterally. One 3-4 mm deep and 7 mm diameter osteochondral defect was made in the medial femoral condyle of each stifle and one defect of the same dimensions in the femoral trochlear groove of each stifle. In one stifle, both defects were immediately filled with the PA/HA hybrid with 1 μg/mL TGFβ-1 preloaded as indicated. In the contralateral stifle, saline was immediately added to both defects, which was supplemented with TGFβ-1 at the same concentration as used in the material treated stifle. A calcium chloride solution was then dripped on top of each defect. […] allowed the sheep to stand on the hindlimbs. Samples of each sheep's synovial fluid was antiseptically drawn immediately prior to surgery and one week following surgery. After euthanasia, gross appearance of the defect areas was assessed the ICRS macroscopic scoring system (Ref. 59; incorporated by reference in its entirety) (Table 4). The samples were then fixed in formalin, decalcified the samples and prepared sections which were stained with H&E, with safranin O, or immunohistochemically for collagen II. Sections were scored using a modified O'Driscoll scoring system (Ref. 60; incorporated by reference in its entirety) (Table 5).
(§2) Preparation of material for surgical implant: Heat treated PA solutions prepared at 19 mM were combined with a 10 μg/mL TGFβ-1 solution (R&D Systems) dissolved in a 0.1% BSA, 4 mM HCl buffer or with the buffer alone at a 9:1 ratio. The combination was mixed by pipetting and kept on ice for 1 h. 900 μL of the mixed solution was added to 36 mg of crosslinked HA particles prepared under sterile conditions and allowed to hydrate for 1 h. The hybrid material was packed into a 1 mL syringe with a 19-gauge needle attached and kept on ice until use during surgery.
Animal study design: Animal work was performed at the University of Wisconsin, School of Veterinary Medicine, and all procedures were approved by the Institutional Animal Use and Care Committee. Thirty-six mature female sheep ranging in age from 2-7 (mean=3.7±1.7) years weighing between 60 and 100 (mean=74±8.3) kg were used in this study. […]

[2] = tested on: osteochondral defect in the medial femoral condyle; test: Osteochondral defect repair, medial femoral condyle (ICRS macroscopic and modified O'Driscoll histology scoring); type: in vivo, sheep; details: TGFβ (+); for median Macroscopic Score: 12-point scale; for median Histology Score: 24-point scale
Description: as §1, §2
Animal study design: Animal work was performed at the University of Wisconsin, School of Veterinary Medicine, and all procedures were approved by the Institutional Animal Use and Care Committee. Thirty-six mature female sheep ranging in age from 2-7 (mean=3.7±1.7) years weighing between 60 and 100 (mean=74±8.3) kg were used in this study. Animals were divided into 6 groups: (1) 1 pilot sheep sacrificed at 1 week to assess material retention, (2) 6 sheep sacrificed at 4 weeks treated with PA and TGFβ-1, with 1 sheep sacrificed prior to 4 weeks due to patellar luxation and excluded from the analysis, (3) 6 sheep sacrificed at 4 weeks with PA, but without TGFβ-1 treatment, (4) 14 sheep sacrificed at 12 weeks with PA and TGFβ-1 treatment, with 4 sheep sacrificed prior to 12 weeks due to patellar luxation and excluded from analysis, (5) 6 sheep sacrificed at 12 weeks with PA but without TGFβ-1 treatment, with 2 sacrificed prior to 12 weeks due to patellar luxation and excluded from analysis, and (6) two sheep sacrificed at 24 weeks with PA and TGFβ-1 treatment.
Surgical technique: Prior to surgery the sheep were fasted for 24 h, and withheld water for 12 h. Sheep were administered a dose of Xylazine (0.1-0.22 mg/kg IM) in their pen to sedate them for transport to the surgical suite as well as a pre-operative dose of buprenorphine (0.0006-0.01 mg/kg IM) for analgesia. Sheep were then induced with ketamine-midazolam (2-10 mg/kg-0.1-0.3 mg/kg IM) and immediately intubated. Once intubated the sheep were maintained on isoflurane (0-4%) in 100% O2. At this time, a dose of Procaine Penicillin-G (10,000-20,000 IU/kg) IM was administered. Using aseptic techniques, a medial stifle arthrotomy was performed on both limbs of each sheep. In each stifle, one osteochondral defect was made in the medial femoral condyle and a second was made in the femoral trochlear groove using a Stryker EHD variable speed surgical drill and a cannulated drill bit. For the 24-week group, defects were made in the condyle only and not the trochlear groove. […]

[3] = 4 weeks, control = TGFβ-1 in saline
[4] = 12 weeks, control = TGFβ-1 in saline

In the case of “Control: in TGFβ (+) groups: contralateral control defects filled with 1 μg/mL TGFβ-1 in saline solution”, the “median Macroscopic Score” value ([1]; 4 weeks) is reported as 5.7, the “median Histology Score” value ([1]; 4 weeks) is reported as 10.3 and the “median Macroscopic Score” value ([1]; 12 weeks) is reported as 10.33. For the same substance, the “median Histology Score” value ([1]; 12 weeks) was 11, the “median Macroscopic Score” value [2, 3] was 5 and the “median Histology Score” value [2, 3] was 9.7. For the same substance, the “median Macroscopic Score” value [2, 4] was 7, the “median Histology Score” value [2, 4] was 10 and the “median Macroscopic Score” value ([2]; 24 weeks) was 9. The “median Histology Score” value ([2]; 24 weeks) was 15.3.

Reference: patent publication US20240408279A1, “SUPRAMOLECULAR-COVALENT COMPOSITE SLURRY FOR CARTILAGE REPAIR” (Northwestern University, priority 2021, published 2024)
